In ChEMBL document CHEMBL3832549, “DailyMed|setid=7633c9b3-dfb5-446f-a260-e44b6e48afa2 | BUDESONIDE- budesonide capsule|Carilion Materials Management”:

Assays:
[1] = (§1) Evaluation of pharmacokinetic parameters for Budesonide following single oral administration of Budesonide capsules (enteric coated) to healthy subjects and/or patients with Crohn's disease.; format: ADME, organism-based; design: dose 9 mg, route oral; details: human, in vivo, dosed compound id 9, dosed compound name BUDESONIDE, regimen Single dose, tissue Plasma
[2] = tested on: Homo sapiens; assay: as §1; format: ADME, organism-based; design: dose 9 mg, route oral; details: in vivo, po, dosed compound id 9, dosed compound name BUDESONIDE, gender male and female, regimen Single dose, tissue Plasma
[3] = po, 9 mg, gender male and female

Tmax ([1]; 9 mg, route oral): 0.5 to 10 h
AUC [1, 3]: 0.03 µM·h
Cmax [1, 3]: 5 nM
fraction unbound ([1]; po, at 9 mg, gender male and female, route oral, read-out: Protein binding): 0.1 to 0.15
Vd [2]: 2.2 to 3.9 L/kg
SMILES: CCCC1O[C@@H]2C[C@H]3[C@@H]4CCC5=CC(=O)C=C[C@]5(C)[C@H]4[C@@H](O)C[C@]3(C)[C@]2(C(=O)CO)O1 (stereo not given in full) [BUDESONIDE]
